Results: US8383672B2, “Halogenated rhodamine derivatives and applications thereof” (Kiadis Pharma Canada Inc., priority 2001, dated 2013)
“Also recorded” adds a separate entry of the source.

Assays:
S. typhimurium = assay: Bacteriostatic activity of rhodamine derivatives against S. typhimurium (photodynamic treatment, CFU/mL); assay type: cell-based, Salmonella typhimurium; conditions: 50 μM; for antibacterial activity against S. typhimurium: 514 nm light 180 minutes, 30 Joules/cm^2; for log decrease of bacterial growth: S. typhimurium, without extrusion time
Description: (§1) The protocol used for the bacteriosidic inactivation was performed as described in Brasseur and coll. with few modifications for bacteriosidic potential assessment (Brasseur et al, 2000).
(§2) Bacterial was grown overnight in Lubria Broth medium (LB), 100 μl (≈×10^7 bacteria) of each bacterial suspension was added to 4 ml of LB medium, a small aliquot of the bacterial suspension was taken out for bacterial titer prior to treatment expressed as CFU/mL. To the bacterial suspension was added the rhodamines derivatives, each derivative being tested in duplicate at a concentration of 50 μM. Each mixture of bacteria rhodamine derivative was incubated at 37° C. for 40 minutes. The bacteria-rhodamine suspensions were then treated and exposed to a 514 nm wavelength light for 180 minutes, for a total output energy of 30 Joules/cm^2. Following the treatment time, the bacteria-rhodamine suspensions were centrifuged at 3000 g, resuspended in 4 ml and serial dilutions were performed for each duplicate. 10 μL of the diluted bacterial suspensions were plated, the plates incubated overnight at 37° C. The bacteriostatic effect is expressed by the number of CFU/mL.

Cytomegalovirus [1] = assay: Antiviral assay against Cytomegalovirus in FS cells, without PDT treatment; assay type: cell-based, CMV (AD169); conditions: 50 uM
Description: The antiviral assay was performed as described in Lin, L (2001). Human diploid fibroblast, foreskin cells (FS), were used in this assay.
(§3) FS cells were grown to confluency in shell vials. At the time of infection 2.5-3.5×10^5 cells were growing on each coverslip. The CMV (AD169) stock solution containing 1 mL of virus were quickly thawed, seeded and diluted following 100 fold dilutions in MEM (Earle's salt) supplemented with L-glutamine and 2% FBS, total volume 30 ml.
(§4) The titer of the virus have been determined at 10^−2 (10^4 TCID50) plaque forming units (pfu) in 0.2 ml. Therefore 1 mL used in the PDT experiments represents […]. A M. O. I. of 0.4-0.5 of CMV was used throughout this experiment.
The plates containing no rhodamines derivatives were treated with light in parallel to the non-light treated plates. The concentration used throughout the assay for the rhodamines derivatives was maintained at 50 uM. Following the addition of the derivatives to the viral stock solution, dilutions were made and inoculated with the FS cells under centrifugation (2000 g, 60 minutes). Following the centrifugation, the cells are incubated 60 minutes at 37° C., 5% CO2, then are washed with the culture media and incubated for 18-24 hours at 37° C. at 5% CO2. Inoculation volume of each dilution was 0.2 ml, the dilutions made were 10^−3 to 10^−5 in duplicate. […]
CMV viral particles were counted. […]

P. aeruginosa = assay: Bacteriostatic activity of rhodamine derivatives against P. aeruginosa (photodynamic treatment, CFU/mL); assay type: cell-based, Pseudomonas aeruginosa; conditions: 50 μM
Description: as §1
as §2, with “(≈1×10^7” for “(≈×10^7”

S. epidermitis = assay: Bacteriostatic activity of rhodamine derivatives against Staphilococcus epidermitis (photodynamic treatment, CFU/mL); assay type: cell-based; conditions: for decrease of bacterial growth (bacteriostatic effect): without extrusion time
Description: Staphilococcus epidermitis
as §1
as §2, with “(≈1×10^7” for “(≈×10^7”, “To the bacterial suspension was added the rhodamines derivatives, each derivative being tested in duplicate at a concentration of 50 μM.” left out
The protocol used for the bacteriosidic inactivation was performed as described in Brasseur and coll. without modification for bacteriosidic potential assessment (Brasseur et al, 2000).
Bacterial was grown overnight in Lubria Broth medium (LB), 100 μl (≈1×10^7 bacteria) of each bacterial suspension added to 4 ml of LB medium. A small aliquot of the bacterial suspension was taken out for bacterial titer prior to treatment. […] Each mixture of bacteria rhodamine derivative was incubated at 37° C. for 40 minutes. The bacterial suspensions were then centrifuged at 3000 g for 10 minutes, resuspended in 4 mL LB media and incubated for 90 minutes at 37° C. to allow extrusion of the derivatives. The bacteria rhodamines suspensions were then treated and exposed to a 514 nm wavelength light for 180 minutes, for a total output energy of 30 Joules/cm^2. Following the treatment time, serial dilutions were performed for each duplicate and 10 μL of the diluted bacterial suspension was plated, the plates incubated overnight at 37° C. The bacteriostatic effect is expressed by the number of colony forming units/mL.

E. coli = assay: Bacteriostatic activity of rhodamine derivatives against E. coli (photodynamic treatment, CFU/mL); conditions: for antibacterial activity against E. coli: 50 μM, 514 nm light 180 minutes, 30 Joules/cm^2; for log decrease of bacterial growth: E. coli, 50 uM, without extrusion time
Description: Bacterial was grown overnight in Lubria Broth medium (LB), 100 μl (≈1×10^7 bacteria) of each bacterial suspension was added to 4 ml of LB medium, a small aliquot of the bacterial suspension was taken out for bacterial titer prior to treatment expressed as CFU/mL (colony forming units per mL). To the bacterial suspension was added the rhodamines derivatives, each derivative being tested in duplicate at a concentration of 50 μM. Each mixture of bacteria rhodamine derivative was incubated at 37° C. for 40 minutes. The bacteria-rhodamine suspensions were then treated and exposed to a 514 nm wavelength light for 180 minutes, for a total output energy of 30 Joules/cm^2. Following the treatment time, the bacteria-rhodamine suspensions were centrifuged at 3000 g, resuspended in 4 ml and serial dilutions were performed for each duplicate. 10 μL of the diluted bacterial suspensions were plated, the plates incubated overnight at 37° C. The bacteriostatic effect is expressed by the number of CFU/mL.

Cytomegalovirus [2] = assay: Antiviral assay against Cytomegalovirus in FS cells, with PDT treatment; assay type: cell-based, CMV (AD169); conditions: 50 uM, followed by PDT treatment (180 minutes, 30 Joules/cm^2)
Description: The antiviral assay was performed as described in Lin, L (2001). Human diploid fibroblast, foreskin cells (FS), were used in this assay. […].
as §3, §4
The plates containing no rhodamines derivatives were treated with light in parallel to the non-light treated plates. The concentration used throughout the assay for the rhodamines derivatives was maintained at 50 uM. Following the addition of the derivatives to the viral stock solution, the plates were placed into the Theralux L6.30 device and illuminated for 180 minutes with 210 rpm agitation. The energy output was measured to be 30 Joules/cm^2. The non-PDT plate was placed into a 37° C. incubator for the same amount of time. Following this treatment time, dilutions were made and inoculated with the FS cells under centrifugation (2000 g, 60 minutes). Following the centrifugation, the cells are incubated 60 minutes at 37° C., 5% CO2, then are washed with the culture media and incubated for 18-24 hours at 37° C. at 5% CO2. Inoculation volume of each dilution was 0.2 ml, the dilutions made were 10^−3 to 10^−5 in duplicate.
The cells were fixed, removed from the vials and stained with labelled FITC (fluorescein isothiocyanate) Mab to CMV immediate early antigen.
CMV viral particles were counted. One fluorescent virus particle (kidney-shaped) represents one plaque forming unit.

[3] = 50 μM, 514 nm light 180 minutes, 30 Joules/cm^2

Molecule	antibacterial activity against S. typhimurium (S. typhimurium)	log decrease of bacterial growth (S. typhimurium) [logs]	antiviral activity against Cytomegalovirus (infectivity) (Cytomegalovirus [1]; hydrochloride)	antibacterial activity against P. aeruginosa (P. aeruginosa; 514 nm light 180 minutes, 30 Joules/cm^2)	log decrease of bacterial growth (P. aeruginosa; P. aeruginosa, without extrusion time) [logs]	antibacterial activity (section Staphilococcus epidermitis) (S. epidermitis; [3])	decrease of bacterial growth (bacteriostatic effect) (S. epidermitis; S. epidermitis, 50 μM)	antibacterial activity against E. coli (E. coli)	log decrease of bacterial growth (E. coli)	antiviral activity against Cytomegalovirus (infectivity) (Cytomegalovirus [1])	antibacterial activity against S. epidermitis (S. epidermitis; 10 μM, 514 nm light 180 minutes, 30 Joules/cm^2)	decrease of bacterial growth (bacteriostatic effect) (S. epidermitis; S. epidermitis, 10 μM)	antiviral activity against Cytomegalovirus (Cytomegalovirus [2])	antibacterial activity against S. epidermitis (S. epidermitis; 50 μM, extrusion time of 90 minutes prior to radiation treatment)	effect on bacterial growth (S. epidermitis; S. epidermitis, 50 μM, with 90 minutes extrusion time)
COC(=O)c1ccccc1-c1c2ccc(=N)c(Br)c-2oc2c(Br)c(N)ccc12.Cl [TH9402, 4,5-dibromorhodamine 123 (2-(4,5-dibromo-6-amino-3-imino-3H-xanthen-9-yl)-benzoic acid methyl ester hydrochloride), reference compound]	showed antibacterial activity	6.7	inhibit cytometalovirus infectivity; also recorded: did not need PDT treatment to possess antiviral activity	showed antibacterial activity	2	showed antibacterial activity	inhibits bacterial growth	showed antibacterial activity	7 logs						
COCCOCCOC(=O)c1ccccc1-c1c2ccc(=N)c(Br)c-2oc2c(Br)c(N)ccc12 [HA-X-44, 4,5-dibromorhodamine 110 2-(2-methoxyethoxy)ethyl esther]	showed antibacterial activity	5				showed antibacterial activity	eradicates bacterial growth	showed antibacterial activity	eradication	inhibit cytometalovirus infectivity; also recorded: did not need PDT treatment to possess antiviral activity					
CCN=c1c(C)cc2c(-c3ccccc3C(=O)OCC)c3cc(C)c(NCC)c(Br)c3oc-2c1Br [HA-X-171, 4,5-dibromorhodamine 6G]								showed antibacterial activity	3.7 logs		showed antibacterial activity	6,5 logs	possess antiviral activity		
acetate salt of 2,7-dibromorhodamine B hexyl ester [HA-X-149]						showed antibacterial activity	4,5 logs						possess antiviral activity		
COC(=O)c1cc(Cl)c(Cl)cc1-c1c2ccc(=[N+](C)C)cc-2oc2cc(N(C)C)ccc12.[Cl-] [HA-X-40, 2′-(6-dimethylamino-3-dimethylimino-3H-xanthen-9-yl) 4′,5′-dichloro-benzoic acid methyl ester hydrochloride]						showed antibacterial activity	2 logs						possess antiviral activity	showed antibacterial activity	eradicates bacterial growth
acetate salt of 2,7-dibromorhodamine B methyl ester [HA-X-164]	showed antibacterial activity	0.3				showed antibacterial activity	3 logs	showed antibacterial activity	0.25 logs				possess antiviral activity		
CCN(CC)c1ccc2c(-c3ccccc3C(=O)OCCCBr)c3ccc(=[N+](CC)CC)cc-3oc2c1 [HA-VIII-92, rhodamine B 3-bromopropyl ester]													possess antiviral activity		
